Results published in ChEMBL document CHEMBL5728800, “JAK inhibitors” (2021).

Assays:
[1] = target: Tyrosine-protein kinase JAK1 (Homo sapiens, UniProt P23458); experiment: (§1) JAK/TYK2 Assay: 10 mM test compound stock or 1 mM control compound stock (tofocitinib, ruxolitinib or staurosporine) in DMSO was diluted to 0.4 mM in DMSO. A 3-fold series dilution was then performed in DMSO to generate 10 different compound concentrations. The assay was carried out in 384-well white plate. 0.5 uL of 40× compound DMSO solution at different concentrations was mixed with 10 uL 2× enzyme prepared in reaction buffer (20 mM HEPES, 10 mM MgCl2, 0.01% Tween, 1 mM DTT, pH 7.5). 10 uL 2× substrate mixture prepared in reaction buffer was then added to start the reaction. A short spin was done to settle down all solutions to the bottom of the plate. Final concentrations of test compound in the reaction mixture were 10000, 3333, 1111, 370, 123, 41.2, 13.7, 4.57, 1.52and 0.51 nM. Concentrations of control compound were ten times less. Enzymatic reaction was conducted at 25° C. for 1-2 hours. 10 uL of Kinase Glo Reagents was added to stop the reaction and generate the luminescent signal which was measured using Envision. Luminescence signal was inversely related to kinase activity. […] The mixture without any compound was the positive control.
Chain of Tyrosine-protein kinase JAK1 (P23458 whole entry): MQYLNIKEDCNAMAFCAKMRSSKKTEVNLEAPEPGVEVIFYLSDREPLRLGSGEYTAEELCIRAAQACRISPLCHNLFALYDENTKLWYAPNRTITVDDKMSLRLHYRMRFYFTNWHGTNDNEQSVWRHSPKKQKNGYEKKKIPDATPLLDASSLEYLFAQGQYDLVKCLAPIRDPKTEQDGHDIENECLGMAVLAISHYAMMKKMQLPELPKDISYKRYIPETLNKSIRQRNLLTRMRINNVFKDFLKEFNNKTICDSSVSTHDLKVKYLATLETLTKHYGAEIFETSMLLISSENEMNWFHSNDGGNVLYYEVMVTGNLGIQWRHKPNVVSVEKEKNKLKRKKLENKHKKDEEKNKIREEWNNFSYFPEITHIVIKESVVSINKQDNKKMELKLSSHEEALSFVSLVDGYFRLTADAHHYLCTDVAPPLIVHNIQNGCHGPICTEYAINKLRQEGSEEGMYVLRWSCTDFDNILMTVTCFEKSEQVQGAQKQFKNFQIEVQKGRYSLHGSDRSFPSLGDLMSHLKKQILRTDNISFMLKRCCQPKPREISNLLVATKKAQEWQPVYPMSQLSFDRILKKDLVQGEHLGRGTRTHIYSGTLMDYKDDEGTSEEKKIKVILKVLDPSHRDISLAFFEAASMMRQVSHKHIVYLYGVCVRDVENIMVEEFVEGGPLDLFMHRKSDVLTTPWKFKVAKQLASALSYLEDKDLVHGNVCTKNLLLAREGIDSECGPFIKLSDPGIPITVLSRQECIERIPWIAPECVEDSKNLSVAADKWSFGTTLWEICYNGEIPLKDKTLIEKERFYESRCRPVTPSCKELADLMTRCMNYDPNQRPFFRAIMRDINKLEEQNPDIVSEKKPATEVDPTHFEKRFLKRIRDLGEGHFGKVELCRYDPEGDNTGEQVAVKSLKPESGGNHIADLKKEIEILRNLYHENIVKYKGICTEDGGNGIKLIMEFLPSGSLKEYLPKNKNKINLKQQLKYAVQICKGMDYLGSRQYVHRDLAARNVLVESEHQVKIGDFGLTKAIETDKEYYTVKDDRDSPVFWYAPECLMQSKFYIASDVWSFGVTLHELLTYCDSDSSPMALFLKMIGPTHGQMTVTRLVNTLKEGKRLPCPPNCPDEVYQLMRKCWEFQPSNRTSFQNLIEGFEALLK

[2] = target: Non-receptor tyrosine-protein kinase TYK2 (Homo sapiens, UniProt P29597); experiment: as §1
Chain of Non-receptor tyrosine-protein kinase TYK2 (P29597 whole entry): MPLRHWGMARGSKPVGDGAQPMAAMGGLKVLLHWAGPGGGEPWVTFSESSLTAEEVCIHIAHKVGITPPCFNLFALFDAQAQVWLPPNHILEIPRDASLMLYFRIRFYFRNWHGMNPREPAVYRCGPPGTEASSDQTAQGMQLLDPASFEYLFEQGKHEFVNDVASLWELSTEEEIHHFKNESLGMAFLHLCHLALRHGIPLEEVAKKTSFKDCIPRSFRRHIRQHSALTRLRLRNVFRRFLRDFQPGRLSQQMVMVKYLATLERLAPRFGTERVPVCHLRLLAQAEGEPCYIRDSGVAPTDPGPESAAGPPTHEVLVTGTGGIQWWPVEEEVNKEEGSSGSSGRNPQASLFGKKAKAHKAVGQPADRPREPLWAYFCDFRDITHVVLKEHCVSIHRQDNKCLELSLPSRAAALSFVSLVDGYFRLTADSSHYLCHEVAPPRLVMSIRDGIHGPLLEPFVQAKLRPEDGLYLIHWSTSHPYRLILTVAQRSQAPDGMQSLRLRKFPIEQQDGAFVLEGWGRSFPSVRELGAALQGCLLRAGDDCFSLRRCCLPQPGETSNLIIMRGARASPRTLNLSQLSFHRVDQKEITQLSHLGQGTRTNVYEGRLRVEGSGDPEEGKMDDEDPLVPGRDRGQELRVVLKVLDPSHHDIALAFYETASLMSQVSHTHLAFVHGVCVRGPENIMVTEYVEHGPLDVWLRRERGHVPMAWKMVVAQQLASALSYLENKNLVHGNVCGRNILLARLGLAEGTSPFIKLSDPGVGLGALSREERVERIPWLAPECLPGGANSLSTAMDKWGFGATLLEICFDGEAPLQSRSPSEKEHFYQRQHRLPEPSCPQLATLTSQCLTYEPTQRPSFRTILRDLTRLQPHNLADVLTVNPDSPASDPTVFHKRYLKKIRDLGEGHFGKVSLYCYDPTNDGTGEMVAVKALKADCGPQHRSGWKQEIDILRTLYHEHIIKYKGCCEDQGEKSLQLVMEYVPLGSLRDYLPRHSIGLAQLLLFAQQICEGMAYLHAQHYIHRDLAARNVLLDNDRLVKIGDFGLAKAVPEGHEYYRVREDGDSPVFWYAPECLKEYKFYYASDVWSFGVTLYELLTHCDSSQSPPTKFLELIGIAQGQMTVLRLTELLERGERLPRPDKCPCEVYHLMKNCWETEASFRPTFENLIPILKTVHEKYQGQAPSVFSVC

[3] = target: T1, Tyrosine-protein kinase JAK3 (Homo sapiens, UniProt P52333); experiment: as §1
T1 sequence (P52333 whole entry): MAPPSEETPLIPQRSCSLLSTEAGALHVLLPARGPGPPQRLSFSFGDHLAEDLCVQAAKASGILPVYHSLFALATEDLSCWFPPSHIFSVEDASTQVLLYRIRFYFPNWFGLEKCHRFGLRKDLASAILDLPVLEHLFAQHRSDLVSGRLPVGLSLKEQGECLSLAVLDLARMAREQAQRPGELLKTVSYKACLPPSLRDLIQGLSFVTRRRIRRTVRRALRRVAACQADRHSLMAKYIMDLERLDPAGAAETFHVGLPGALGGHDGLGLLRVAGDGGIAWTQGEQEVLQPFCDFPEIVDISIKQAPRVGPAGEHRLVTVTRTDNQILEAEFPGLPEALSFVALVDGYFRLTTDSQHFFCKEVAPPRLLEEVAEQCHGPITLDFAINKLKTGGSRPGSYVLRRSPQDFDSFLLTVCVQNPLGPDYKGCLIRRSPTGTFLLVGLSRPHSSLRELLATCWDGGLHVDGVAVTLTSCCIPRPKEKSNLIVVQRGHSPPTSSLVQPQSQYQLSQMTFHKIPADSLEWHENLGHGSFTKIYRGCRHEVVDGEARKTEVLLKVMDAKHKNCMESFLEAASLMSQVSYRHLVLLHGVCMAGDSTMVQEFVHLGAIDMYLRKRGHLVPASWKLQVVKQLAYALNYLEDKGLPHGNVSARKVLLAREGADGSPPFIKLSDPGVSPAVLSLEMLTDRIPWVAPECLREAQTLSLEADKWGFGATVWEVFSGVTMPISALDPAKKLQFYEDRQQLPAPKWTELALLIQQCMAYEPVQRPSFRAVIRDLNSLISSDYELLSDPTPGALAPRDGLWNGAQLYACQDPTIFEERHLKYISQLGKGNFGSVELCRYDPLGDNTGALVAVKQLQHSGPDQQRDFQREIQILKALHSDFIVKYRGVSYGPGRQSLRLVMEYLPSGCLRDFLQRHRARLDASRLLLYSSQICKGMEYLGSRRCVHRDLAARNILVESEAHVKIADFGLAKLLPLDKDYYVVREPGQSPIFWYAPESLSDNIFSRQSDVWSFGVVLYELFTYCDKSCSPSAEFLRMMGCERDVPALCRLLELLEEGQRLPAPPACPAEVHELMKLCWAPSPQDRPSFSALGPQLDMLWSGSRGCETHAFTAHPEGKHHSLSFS

[4] = target: Tyrosine-protein kinase JAK2 (Homo sapiens, UniProt O60674); experiment: as §1, with “Final concentrations of test compound in the reaction mixture were 10000, 3333, 1111, 370, 123, 41.2, 13.7, 4.57, 1.52and 0.51 nM.” left out
Chain of Tyrosine-protein kinase JAK2 (O60674 whole entry): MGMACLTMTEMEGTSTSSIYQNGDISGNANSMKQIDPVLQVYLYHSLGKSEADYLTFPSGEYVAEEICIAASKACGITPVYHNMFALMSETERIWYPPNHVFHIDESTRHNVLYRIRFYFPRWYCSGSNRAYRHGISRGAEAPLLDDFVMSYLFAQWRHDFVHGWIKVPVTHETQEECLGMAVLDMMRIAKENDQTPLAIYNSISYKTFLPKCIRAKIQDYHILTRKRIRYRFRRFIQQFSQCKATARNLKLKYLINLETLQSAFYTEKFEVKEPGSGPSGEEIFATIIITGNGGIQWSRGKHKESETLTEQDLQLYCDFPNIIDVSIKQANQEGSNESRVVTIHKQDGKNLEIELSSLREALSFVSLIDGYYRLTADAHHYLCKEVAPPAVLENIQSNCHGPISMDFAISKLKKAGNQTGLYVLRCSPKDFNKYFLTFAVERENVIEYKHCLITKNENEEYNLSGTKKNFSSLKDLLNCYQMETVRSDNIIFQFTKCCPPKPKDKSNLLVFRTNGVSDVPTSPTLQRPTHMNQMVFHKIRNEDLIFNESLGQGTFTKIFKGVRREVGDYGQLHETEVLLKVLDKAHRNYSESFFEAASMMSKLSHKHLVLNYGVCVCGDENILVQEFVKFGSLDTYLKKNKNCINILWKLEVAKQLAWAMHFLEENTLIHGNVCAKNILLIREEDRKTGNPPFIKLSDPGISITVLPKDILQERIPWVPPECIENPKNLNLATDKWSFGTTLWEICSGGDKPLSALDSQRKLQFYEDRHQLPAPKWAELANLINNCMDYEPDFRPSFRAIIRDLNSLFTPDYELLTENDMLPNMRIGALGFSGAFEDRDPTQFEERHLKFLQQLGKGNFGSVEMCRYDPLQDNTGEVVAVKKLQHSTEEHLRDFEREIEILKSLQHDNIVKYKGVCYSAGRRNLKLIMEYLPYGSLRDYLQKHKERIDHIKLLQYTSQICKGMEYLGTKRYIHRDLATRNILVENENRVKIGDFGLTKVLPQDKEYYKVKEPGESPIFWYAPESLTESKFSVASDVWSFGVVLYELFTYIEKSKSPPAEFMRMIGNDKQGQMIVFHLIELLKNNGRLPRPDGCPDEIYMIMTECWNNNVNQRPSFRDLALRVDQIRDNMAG

Measured: IC50

CC[C@H](Cn1ccc2cnc(Nc3cnn([C@@H](CCO)C(=O)O)c3)nc21)C(C)C
< 100 nM: [1] | [2] | [3] | [4]

CCC(CC)Cn1ccc2cnc(Nc3cnn(CC(=O)OCC4OC(O)CC(O)C4O)c3)nc21 (stereo not drawn)
< 100 nM: [1] | [2] | [3] | [4]
